Test results from a compilation of properties of binary mixtures (doi:10.1021/jp071051m).

Assay: xn = mol fraction of the nth substance listed
Settings: 298.15 K, 101 kPa

`CCCC[n+]1ccn(C)c1.F[P-](F)(F)(F)(F)F` + c1ccncc1 showed an electrical conductivity (x2 = 0) of 0.157 S/m, a viscosity (x2 = 0) of 260 mPa·s and an electrical conductivity (x2 = 0.0964) of 0.222 S/m. The viscosity (x2 = 0.0964) was 161 mPa·s, the electrical conductivity (x2 = 0.1929) was 0.308 S/m and the viscosity (x2 = 0.1929) was 102 mPa·s. For the same compound, the electrical conductivity (x2 = 0.291) was 0.435 S/m, the viscosity (x2 = 0.291) was 63.4 mPa·s and the electrical conductivity (x2 = 0.3899) was 0.599 S/m. The viscosity (x2 = 0.3899) was 38 mPa·s, the electrical conductivity (x2 = 0.5922) was 1.11 S/m and the viscosity (x2 = 0.5922) was 12.1 mPa·s. The electrical conductivity (x2 = 0.6978) was 1.43 S/m, the viscosity (x2 = 0.6978) was 6.35 mPa·s and the electrical conductivity (x2 = 0.7695) was 1.63 S/m. It also gave a viscosity (x2 = 0.7695) of 3.73 mPa·s, an electrical conductivity (x2 = 0.8372) of 1.73 S/m and a viscosity (x2 = 0.8372) of 2.42 mPa·s. The electrical conductivity (x2 = 0.8781) was 1.68 S/m and the viscosity (x2 = 0.8781) was 1.94 mPa·s.
For `ClCCl` + CCCC[n+]1ccn(C)c1.F[P-](F)(F)(F)(F)F, the electrical conductivity (x1 = 0.0753) was 0.213 S/m, the viscosity (x1 = 0.0753) was 180 mPa·s and the electrical conductivity (x1 = 0.163) was 0.294 S/m. It also gave a viscosity (x1 = 0.163) of 129 mPa·s, an electrical conductivity (x1 = 0.3361) of 0.533 S/m and a viscosity (x1 = 0.3361) of 58.2 mPa·s. It also gave an electrical conductivity (x1 = 0.5384) of 0.97 S/m, a viscosity (x1 = 0.5384) of 18.7 mPa·s and an electrical conductivity (x1 = 0.6462) of 1.24 S/m. It also gave a viscosity (x1 = 0.6462) of 9.5 mPa·s, an electrical conductivity (x1 = 0.738) of 1.43 S/m and a viscosity (x1 = 0.738) of 5 mPa·s. It also gave an electrical conductivity (x1 = 0.8242) of 1.42 S/m, a viscosity (x1 = 0.8242) of 2.57 mPa·s and an electrical conductivity (x1 = 0.8678) of 1.3 S/m. It also gave a viscosity (x1 = 0.8678) of 1.82 mPa·s.
`CCCC[n+]1ccn(C)c1.O=C([O-])C(F)(F)F` + O gave an electrical conductivity (x2 = 0) of 0.455 S/m, a viscosity (x2 = 0) of 52.9 mPa·s and an electrical conductivity (x2 = 0.1093) of 0.543 S/m. For the same compound, the viscosity (x2 = 0.1093) was 46.3 mPa·s, the electrical conductivity (x2 = 0.197) was 0.619 S/m and the viscosity (x2 = 0.197) was 40.9 mPa·s. It also gave an electrical conductivity (x2 = 0.2888) of 0.713 S/m, a viscosity (x2 = 0.2888) of 35.5 mPa·s and an electrical conductivity (x2 = 0.396) of 0.88 S/m. The viscosity (x2 = 0.396) was 29.2 mPa·s, the electrical conductivity (x2 = 0.4921) was 1.07 S/m and the viscosity (x2 = 0.4921) was 23.8 mPa·s. The electrical conductivity (x2 = 0.5897) was 1.34 S/m, the viscosity (x2 = 0.5897) was 18.7 mPa·s and the electrical conductivity (x2 = 0.6918) was 1.72 S/m. The viscosity (x2 = 0.6918) was 13.6 mPa·s, the electrical conductivity (x2 = 0.7927) was 2.38 S/m and the viscosity (x2 = 0.7927) was 9 mPa·s. It also gave an electrical conductivity (x2 = 0.884) of 3.14 S/m, a viscosity (x2 = 0.884) of 5.13 mPa·s and an electrical conductivity (x2 = 0.9195) of 3.34 S/m. It also gave a viscosity (x2 = 0.9195) of 3.67 mPa·s.
`CCCC[n+]1ccn(C)c1.O=C([O-])C(F)(F)F` + CC#N showed an electrical conductivity (x2 = 0) of 0.455 S/m, a viscosity (x2 = 0) of 52.9 mPa·s and an electrical conductivity (x2 = 0.0798) of 0.562 S/m. For the same compound, the viscosity (x2 = 0.0798) was 42.7 mPa·s, the electrical conductivity (x2 = 0.1769) was 0.699 S/m and the viscosity (x2 = 0.1769) was 31.7 mPa·s. It also gave an electrical conductivity (x2 = 0.3539) of 1.05 S/m, a viscosity (x2 = 0.3539) of 17.4 mPa·s and an electrical conductivity (x2 = 0.4443) of 1.32 S/m. The viscosity (x2 = 0.4443) was 12.1 mPa·s, the electrical conductivity (x2 = 0.547) was 1.69 S/m and the viscosity (x2 = 0.547) was 7.61 mPa·s. It also gave an electrical conductivity (x2 = 0.6553) of 2.19 S/m, a viscosity (x2 = 0.6553) of 4.38 mPa·s and an electrical conductivity (x2 = 0.7649) of 2.76 S/m. For the same compound, the viscosity (x2 = 0.7649) was 2.27 mPa·s, the electrical conductivity (x2 = 0.8457) was 3.06 S/m and the viscosity (x2 = 0.8457) was 1.19 mPa·s. The electrical conductivity (x2 = 0.8802) was 3.09 S/m and the viscosity (x2 = 0.8802) was 1.09 mPa·s.
For `CCCC[n+]1ccn(C)c1.O=C([O-])C(F)(F)F` + ClC(Cl)Cl, the electrical conductivity (x2 = 0) was 0.455 S/m, the viscosity (x2 = 0) was 52.9 mPa·s and the electrical conductivity (x2 = 0.0918) was 0.507 S/m. It also gave a viscosity (x2 = 0.0918) of 46.4 mPa·s, an electrical conductivity (x2 = 0.1815) of 0.558 S/m and a viscosity (x2 = 0.1815) of 40.4 mPa·s. For the same compound, the electrical conductivity (x2 = 0.2793) was 0.618 S/m, the viscosity (x2 = 0.2793) was 33.7 mPa·s and the electrical conductivity (x2 = 0.3861) was 0.692 S/m. For the same compound, the viscosity (x2 = 0.3861) was 25.9 mPa·s, the electrical conductivity (x2 = 0.482) was 0.766 S/m and the viscosity (x2 = 0.482) was 19.3 mPa·s. The electrical conductivity (x2 = 0.5804) was 0.85 S/m, the viscosity (x2 = 0.5804) was 13 mPa·s and the electrical conductivity (x2 = 0.6467) was 0.89 S/m. For the same compound, the viscosity (x2 = 0.6467) was 9.7 mPa·s, the electrical conductivity (x2 = 0.6812) was 0.9 S/m and the viscosity (x2 = 0.6812) was 7.85 mPa·s. It also gave an electrical conductivity (x2 = 0.729) of 0.89 S/m, a viscosity (x2 = 0.729) of 6.06 mPa·s and an electrical conductivity (x2 = 0.7847) of 0.826 S/m. For the same compound, the viscosity (x2 = 0.7847) was 4.02 mPa·s, the electrical conductivity (x2 = 0.8677) was 0.603 S/m and the viscosity (x2 = 0.8677) was 2.02 mPa·s.
With `CCCC[n+]1ccn(C)c1.F[P-](F)(F)(F)(F)F` + CCOC(C)=O the electrical conductivity (x2 = 0) was 0.157 S/m, the viscosity (x2 = 0) was 260 mPa·s and the electrical conductivity (x2 = 0.0883) was 0.229 S/m. For the same compound, the viscosity (x2 = 0.0883) was 167 mPa·s, the electrical conductivity (x2 = 0.1793) was 0.326 S/m and the viscosity (x2 = 0.1793) was 101 mPa·s. For the same compound, the electrical conductivity (x2 = 0.4691) was 0.771 S/m, the viscosity (x2 = 0.4691) was 21 mPa·s and the electrical conductivity (x2 = 0.5703) was 0.96 S/m. It also gave a viscosity (x2 = 0.5703) of 11.3 mPa·s, an electrical conductivity (x2 = 0.6738) of 1.1 S/m and a viscosity (x2 = 0.6738) of 5.69 mPa·s. It also gave an electrical conductivity (x2 = 0.8339) of 0.96 S/m and a viscosity (x2 = 0.8339) of 2.07 mPa·s.
In the case of `CCCC[n+]1ccn(C)c1.F[P-](F)(F)(F)(F)F` + ClCCl, the electrical conductivity (x2 = 0) is reported as 0.157 S/m and the viscosity (x2 = 0) is reported as 260 mPa·s.
With `CCCC[n+]1ccn(C)c1.F[P-](F)(F)(F)(F)F` + CC(C)=O the electrical conductivity (x2 = 0) was 0.157 S/m, the viscosity (x2 = 0) was 260 mPa·s and the electrical conductivity (x2 = 0.1006) was 0.256 S/m. The viscosity (x2 = 0.1006) was 148 mPa·s, the electrical conductivity (x2 = 0.1935) was 0.389 S/m and the viscosity (x2 = 0.1935) was 89 mPa·s. It also gave an electrical conductivity (x2 = 0.3033) of 0.612 S/m, a viscosity (x2 = 0.3033) of 48.4 mPa·s and an electrical conductivity (x2 = 0.3988) of 0.89 S/m. For the same compound, the viscosity (x2 = 0.3988) was 27.4 mPa·s, the electrical conductivity (x2 = 0.6016) was 1.81 S/m and the viscosity (x2 = 0.6016) was 7.36 mPa·s. For the same compound, the electrical conductivity (x2 = 0.6992) was 2.38 S/m, the viscosity (x2 = 0.6992) was 3.76 mPa·s and the electrical conductivity (x2 = 0.8433) was 3.11 S/m. For the same compound, the viscosity (x2 = 0.8433) was 1.34 mPa·s, the electrical conductivity (x2 = 0.8853) was 3.12 S/m and the viscosity (x2 = 0.8853) was 1.02 mPa·s.
